Read-outs that look alike come from different tables or passages of the source.
Experiments:
[1] = target: T1, human cannabinoid receptor type 2 (Homo sapiens, UniProt P34972); test: Human CB2 Radioligand Binding Assay; conditions: membranes from stably transfected CHO CB2 cells
T1 construct: expressed in transfected cells; membrane preparation
In short: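 Filtration competition binding on membranes from CHO cells stably expressing human CB2, with [3H]CP-55,940 at its lot-specific Kd, in 50 mM Tris-HCl pH 7.4, EGTA, MgCl2, 5 mg/ml BSA, 1% DMSO; 90 min at 30° C. Compounds at 10 uM single point or dose-response; bound radioactivity by scintillation, 100 nM CP-55,940 as 100% efficacy.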

[2] = target: T2, human cannabinoid receptor type 1 (Homo sapiens, UniProt P21554); test: Human CB1 Radioligand Binding Assay (basis of selectivity, CB2 vs. CB1); conditions: CB1: HEK 293 EBNA cells expressing human CB1; CB2: CHO CB2 membranes
T2 construct: purchased Perkin Elmer RBHCB1M; host or cells: HEK 293 EBNA cells
T2 sequence (P21554 whole entry): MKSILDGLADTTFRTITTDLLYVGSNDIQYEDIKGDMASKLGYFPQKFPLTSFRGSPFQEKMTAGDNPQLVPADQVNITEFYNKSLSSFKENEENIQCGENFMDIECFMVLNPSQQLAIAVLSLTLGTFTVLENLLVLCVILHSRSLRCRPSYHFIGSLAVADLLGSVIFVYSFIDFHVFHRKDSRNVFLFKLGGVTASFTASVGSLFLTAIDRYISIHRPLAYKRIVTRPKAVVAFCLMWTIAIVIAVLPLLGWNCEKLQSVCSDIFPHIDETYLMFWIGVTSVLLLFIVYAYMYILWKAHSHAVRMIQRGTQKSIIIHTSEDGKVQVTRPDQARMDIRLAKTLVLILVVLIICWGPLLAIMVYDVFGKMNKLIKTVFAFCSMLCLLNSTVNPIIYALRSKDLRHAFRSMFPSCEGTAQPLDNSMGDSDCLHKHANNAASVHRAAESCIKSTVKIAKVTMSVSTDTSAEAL
Experimental: 2. Human CB1 Radioligand Binding Assay
The incubation buffer was composed of 50 mM Tris-HCl pH 7.4, 2.5 mM EDTA, 5 mM MgCl2, 5.0 mg/ml fatty acid free BSA and the wash buffer was composed of 50 mM Tris-HCl pH 7.4, 2.5 mM EDTA, 5 mM MgCl2, 0.5 mg/ml fatty acid free BSA.

[3] = CB2 Ligand Binding Asssay EC50, competition with [3H] CP-55,940
[4] = competition with [3H] CP-55,940, read-out: CB2 Ligand Binding Asssay EC50

T1 sequence (P34972 whole entry): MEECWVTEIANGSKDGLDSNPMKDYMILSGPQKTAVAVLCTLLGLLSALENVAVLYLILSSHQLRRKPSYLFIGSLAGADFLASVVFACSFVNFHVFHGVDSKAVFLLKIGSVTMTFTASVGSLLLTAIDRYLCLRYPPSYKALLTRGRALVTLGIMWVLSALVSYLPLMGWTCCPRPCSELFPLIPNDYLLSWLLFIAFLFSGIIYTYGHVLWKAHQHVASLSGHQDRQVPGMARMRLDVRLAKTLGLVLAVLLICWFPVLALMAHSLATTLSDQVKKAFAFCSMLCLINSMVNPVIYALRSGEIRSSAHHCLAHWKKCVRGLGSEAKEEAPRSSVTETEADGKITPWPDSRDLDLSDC

SMILES	EC50 [1, 3] [µM]	Selectivity, CB2 vs. CB1 [2]	EC50 [1, 4] [µM]
CC(C)S(=O)(=O)N1CCN(c2nc(-c3ccccc3Cl)nc3ccccc23)CC1 [Example 83, 2-(2-Chlorophenyl)-4-[4-(propane-2-sulfonyl)piperazin-1-yl]quinazoline]	> 1	− (− indicates ≦ 10−fold)	
CCCS(=O)(=O)N1CCN(c2nc(-c3ccccc3Cl)nc3ccccc23)CC1 [Example 84, 2-(2-Chlorophenyl)-4-(4-(propylsulfonyl)piperazin-1-yl)quinazoline]		− (− indicates ≦ 10−fold)	> 1
CCS(=O)(=O)N1CCN(c2nc(-c3ccccc3Cl)nc3ccccc23)CC1 [Example 85, 2-(2-Chlorophenyl)-4-(4-(ethylsulfonyl)piperazin-1-yl)quinazoline]	> 1	− (− indicates ≦ 10−fold)	
CS(=O)(=O)N1CCN(c2nc(-c3ccccc3Cl)nc3ccccc23)CC1 [Example 86, 2-(2-Chlorophenyl)-4-(4-(methylsulfonyl)piperazin-1-yl)quinazoline]		− (− indicates ≦ 10−fold)	< 1
CCNC(=O)N1CCN(c2nc(-c3ccccc3Cl)nc3ccccc23)CC1 [Example 87, 4-(2-(2-chlorophenyl)quinazolin-4-yl)-N-ethylpiperazine-1-carboxamide]		− (− indicates ≦ 10−fold)	> 1
CNC(=O)N1CCN(c2nc(-c3ccccc3Cl)nc3ccccc23)CC1 [Example 88, 4-(2-(2-Chlorophenyl)quinazolin-4-yl)-N-methylpiperazine-1-carboxamide]		− (− indicates ≦ 10−fold)	> 1
CC(C)(C)NC(=O)N1CCN(c2nc(-c3ccccc3Cl)nc3ccccc23)CC1 [Example 89, N-tert-Butyl-4-(2-(2-chlorophenyl)quinazolin-4-yl)piperazine-1-carboxamide]		− (− indicates ≦ 10−fold)	> 1
CC(C)NC(=O)N1CCN(c2nc(-c3ccccc3Cl)nc3ccccc23)CC1 [Example 90, 4-(2-(2-Chlorophenyl)quinazolin-4-yl)-N-isopropylpiperazine-1-carboxamide]	> 1	− (− indicates ≦ 10−fold)	
CCCNC(=O)N1CCN(c2nc(-c3ccccc3Cl)nc3ccccc23)CC1 [Example 91, 4-(2-(2-Chlorophenyl)quinazolin-4-yl)-N-propylpiperazine-1-carboxamide]	> 1	− (− indicates ≦ 10−fold)	
COC(=O)N1CCN(c2nc(-c3ccccc3Cl)nc3ccccc23)CC1 [Example 92, Methyl 4-(2-(2-Chlorophenyl)quinazolin-4-yl)piperazine-1-carboxylate]		− (− indicates ≦ 10−fold)	> 1
CC(C)OC(=O)N1CCN(c2nc(-c3ccccc3Cl)nc3ccccc23)CC1 [Example 93, Isopropyl 4-(2-(2-chlorophenyl)quinazolin-4-yl)piperazine-1-carboxylate]	> 1	+ (+ indicates > 10−fold)	
CCCOC(=O)N1CCN(c2nc(-c3ccccc3Cl)nc3ccccc23)CC1 [Example 94, Propyl 4-(2-(2-chlorophenyl)quinazolin-4-yl)piperazine-1-carboxylate]		− (− indicates ≦ 10−fold)	> 1
CCCC(=O)N1CCN(c2nc(-c3ccccc3Cl)nc3ccccc23)CC1 [Example 95, 1-(4-(2-(2-Chlorophenyl)quinazolin-4-yl)piperazin-1-yl)butan-1-one]		+ (+ indicates > 10−fold)	< 1
CC(C)C(=O)N1CCN(c2nc(-c3ccccc3Cl)nc3ccccc23)CC1 [Example 96, 1-(4-(2-(2-Chlorophenyl)quinazolin-4-yl)piperazin-1-yl)-2-methylpropan-1-one]		+ (+ indicates > 10−fold)	< 1
O=C(C1CC1)N1CCN(c2nc(-c3ccccc3Cl)nc3ccccc23)CC1 [Example 97, (4-(2-(2-Chlorophenyl)quinazolin-4-yl)piperazin-1-yl)(cyclopropyl)methanone]		+ (+ indicates > 10−fold)	< 1
CCC(=O)N1CCN(c2nc(-c3ccccc3Cl)nc3ccccc23)CC1 [Example 98, 1-(4-(2-(2-Chlorophenyl)quinazolin-4-yl)piperazin-1-yl)propan-1-one]		+ (+ indicates > 10−fold)	< 1
CC(=O)N1CCN(c2nc(-c3ccccc3Cl)nc3ccccc23)CC1 [Example 99, 1-(4-(2-(2-Chlorophenyl)quinazolin-4-yl)piperazin-1-yl)ethanone]		+ (+ indicates > 10−fold)	< 1

SMILES	EC50 [1, 3] [µM]	Selectivity, CB2 vs. CB1 [2]	EC50 [1, 4] [µM]
CC1(C)C(C(=O)N2CCN(c3nc(-c4ccccc4Cl)nc4ccccc34)CC2)C1(C)C [Example 100, (4-(2-(2-Chlorophenyl)quinazolin-4-yl)piperazin-1-yl)(2,2,3,3-tetramethylcyclopropyl)methanone]	> 1	− (− indicates ≦ 10−fold)	
CN(C)C(=O)C1CCN(c2nc(-c3ccccc3Cl)nc3ccccc23)CC1 [Example 102, 1-(2-(2-Chlorophenyl)quinazolin-4-yl)-N,N-dimethylpiperidine-4-carboxamide]		− (− indicates ≦ 10−fold)	> 1
O=C(N1CCN(c2nc(-c3ccccc3Cl)nc3ccccc23)CC1)C(F)(F)F [Example 103, 1-(4-(2-(2-Chlorophenyl)quinazolin-4-yl)piperazin-1-yl)-2,2,2-trifluoroethanone]		− (− indicates ≦ 10−fold)	< 1
FC(F)(F)CN1CCN(c2nc(-c3ccccc3Cl)nc3ccccc23)CC1 [Example 104, 2-(2-chlorophenyl)-4-(4-(2,2,2-trifluoroethyl)piperazin-1-yl)quinazoline]		− (− indicates ≦ 10−fold)	< 1
CCN1CCN(c2nc(-c3ccccc3Cl)nc3ccccc23)CC1 [Example 105, 2-(2-chlorophenyl)-4-(4-ethylpiperazin-1-yl)quinazoline]		+ (+ indicates > 10−fold)	< 1
FC(F)(F)N1CCN(c2nc(-c3ccccc3Cl)nc3ccccc23)CC1 [Example 106, 2-(2-Chlorophenyl)-4-(4-(trifluoromethyl)piperazin-1-yl)quinazoline]		+ (+ indicates > 10−fold)	< 1
CCCCN1CCN(c2nc(-c3ccccc3Cl)nc3ccccc23)CC1 [Example 107]		− (− indicates ≦ 10−fold)	> 1
CCCN1CCN(c2nc(-c3ccccc3Cl)nc3ccccc23)CC1 [Example 108, 2-(2-Chlorophenyl)-4-(4-propylpiperazin-1-yl)quinazoline]		+ (+ indicates > 10−fold)	< 1
CN1CCN(c2nc(-c3ccc(C(C)(C)C)cc3)nc3ccccc23)CC1 [Example 109, 2-(4-tert-Butylphenyl)-4-(4-methylpiperazin-1-yl)quinazoline]		+ (+ indicates > 10−fold)	< 1
CC(C)(C)c1ccc(-c2nc(N3CCCC3)c3ccccc3n2)cc1 [Example 110, 2-(4-tert-Butylphenyl)-4-(pyrrolidin-1-yl)quinazoline]		+ (+ indicates > 10−fold)	< 1
CC(C)(C)c1ccc(-c2nc(N3CCCCC3)c3ccccc3n2)cc1 [Example 111, 2-(4-tert-Butylphenyl)-4-(piperidin-1-yl)quinazoline]		− (− indicates ≦ 10−fold)	< 1
CC(C)(C)c1ccc(-c2nc(N3CCOCC3)c3ccccc3n2)cc1 [Example 112, 4-(2-(4-tert-Butylphenyl)quinazolin-4-yl)morpholine]		− (− indicates ≦ 10−fold)	< 1
CN(Cc1ccccc1)c1nc(-c2ccc(C(C)(C)C)cc2)nc2ccccc12 [Example 113, N-Benzyl-2-(4-tert-butylphenyl)-N-methylquinazolin-4-amine]		− (− indicates ≦ 10−fold)	> 1
CC(C)(C)c1ccc(-c2nc(N3CCSCC3)c3ccccc3n2)cc1 [Example 114, 2-(4-tert-Butylphenyl)-4-thiomorpholin-4-ylquinazoline]		+ (+ indicates > 10−fold)	< 1
CC(C)(C)c1ccc(-c2nc(Nc3ccc(F)cc3F)c3ccccc3n2)cc1 [Example 115, 2-(4-tert-Butylphenyl)-N-(2,4-difluorophenyl)quinazolin-4-amine]		− (− indicates ≦ 10−fold)	> 1
CN(c1ccc(F)cc1F)c1nc(-c2ccc(C(C)(C)C)cc2)nc2ccccc12 [Example 116, 2-(4-tert-Butylphenyl)-N-(2,4-difluorophenyl)-N-methylquinazolin-4-amine]		− (− indicates ≦ 10−fold)	> 1
CC(C)(C)c1ccc(-c2nc(Nc3ccc(F)c(F)c3)c3ccccc3n2)cc1 [Example 117, 2-(4-tert-Butylphenyl)-N-(3,4-difluorophenyl)quinazolin-4-amine]		− (− indicates ≦ 10−fold)	< 1

From patent US20090209536A1, “AMINOQUINAZOLINE CANNABINOID RECEPTOR MODULATORS FOR TREATMENT OF DISEASE” (KALYPSYS, INC., priority 2007, published 2009)
